Data set [1] concerns RA-induced epidermal hyperplasia. Nature of the data set: Inhibition of RA-induced epidermal hyperplasia in human skin organ cultures. The settings on record: for Percent Reduction in Retinoid-Induced Hyperplasia (%): reduction in epidermal thickness vs RA alone, n=3. The format is cell-based. From the text: (§1) Replicate 6-mm punch biopsies of full-thickness psoriatic plaque skin were obtained from human skin donors with psoriasis. These biopsies were used in the transplant studies. Six-mm punch biopsies of sun-protected (hip) skin from non-psoriatic donors were obtained as controls. In addition, replicate 2-mm full-thickness punch biopsies of sun-protected hip skin were obtained from normal donors for use in organ culture studies.
(§2) Immediately upon biopsy, the replicate 2-mm punch biopsies (non-psoriatic skin only) were immersed in culture medium consisting of Keratinocyte Basal Medium (KBM) (Lonza, Walkersville, Md.). KBM is a low-Ca^2+, serum-free modification of MCDB-153 medium. It was supplemented with CaCl2 to bring the final Ca^2+ concentration to 1.4 mM. Biopsies were incubated in wells of a 24-well dish containing 400 μl of Ca^2+-supplemented KBM with or without additional treatments (RA and/or Compound H). Cultures were incubated at 37° C. in an atmosphere of 95% air and 5% CO2. Other than to maintain the tissue in a minimal volume of medium, nothing further was done to ensure a strict air-liquid interface. Incubation was for 8 days, with change of medium and fresh treatments provided every second day. At the end of the incubation period, tissue was fixed in 10% buffered formalin and examined histologically after staining with hematoxylin and eosin. Routinely, 3-6 tissue sections were prepared from each block. Epidermal thickness measurements were made at several sites in each tissue section (distance from the dermal-epidermal juncture to the top of the viable portion of the epithelium). The organ culture procedure employed here has been described in the past (Varani et al. (1993) Amer. J. Pathol. 142:189-198; and Varani et al., (1994) J. Clin. Invest. 94:1747-1753). In order to evaluate the toxicity of compound H, tissue was examined histologically and necrosis was assessed on a 0 to 4+ scale, with 0 indicating no change from control and 4+ indicating complete necrosis of the epidermis (n=6). Scores ≦1 were taken as normal.
The average epidermal thickness in the absence of RA was 70-90 μm, while the average epidermal thickness was 275 μm in cells exposed to RA.

In data set [2] the test system is Human Skin Organ Cultures. Nature of the data set: Toxicity (epidermal necrosis) in human skin organ cultures. The settings on record: necrosis on 0 to 4+ scale, scores ≦1 normal, 8 days organ culture, n=6. The format is cell-based.
Text: as §1, §2

For data set [3], the system named is human foreskin fibroblasts (HFF). Nature of the data set: Fibroblast proliferation assay. The format is cell-based. To be noted: Homo sapiens; for inhibition at 1 µM / inhibition at 0.05 µM / inhibition at 0.1 µM / inhibition at 0.5 µM / inhibition at 5 µM / inhibition at 10 µM: 48 h, HFF, day 2, read-out: Percent Inhibition of Cells Per Concentration of Test Compound. As for the experimental part: Fibroblasts obtained from the same tissue were grown in monolayer culture using Dulbecco's modified minimal essential medium supplemented with nonessential amino acids and 10% fetal bovine serum (DMEM-FBS) as culture medium. Both keratinocytes and fibroblasts were maintained at 37° C. in an atmosphere of 95% air and 5% CO2. Cells were subcultured by exposure to trypsin/ethylenediamine tetraacetic acid (EDTA) and used at passage 2-4.
(§3) Keratinocyte proliferation was assessed by seeding 4×10^4 cells per well in a 24-well plate using KGM as culture medium. After the cells had attached (overnight), they were washed and triplicate samples were harvested for zero-time counts. DMSO served as a negative control. Proliferation was measured on day 2 by releasing the cells with trypsin/EDTA and enumerating them using a particle counter (Coulter Electronics, Hialeah, Fla.). Fibroblast proliferation studies were conducted in a similar manner except that […] was used as culture medium.
(§4) KC refers to human keratinocytes. HFF refers to human foreskin fibroblasts. The cLogP values were calculated using ChemDraw™ (CambridgeSoft).

Data set [4] concerns human keratinocytes (KC). Nature of the data set: Keratinocyte proliferation assay. The format is cell-based. To be noted: Homo sapiens, Keratinocyte; for inhibition at 0.05 µM / inhibition at 0.1 µM / inhibition at 0.5 µM / inhibition at 1 µM / inhibition at 5 µM / inhibition at 10 µM: 48 h, KC, day 2, read-out: Percent Inhibition of Cells Per Concentration of Test Compound. The method, then: Epidermal keratinocytes were isolated from fresh tissue biopsies as described previously (Varani et al., (1994) J. Clin. Invest. 94:1747-1753). Primary and early passage cells were maintained in Keratinocyte Growth Medium (KGM) (Lonza). KGM contains the same basal medium as KBM but is further supplemented with a mixture of growth factors including 0.1 ng per mL EGF, 0.5 μg per mL insulin, and 0.4% bovine pituitary extract. In addition to using low-passage keratinocytes, we also used the HaCat line of immortalized human epidermal keratinocytes in some experiments. The immortalized keratinocytes were handled exactly as low-passage keratinocytes.
as §3, §4

The test system of data set [5] is Ramos cells. The data set can be described thus: Cytotoxicity against Ramos cells. The format is cell-based. To be noted: Homo sapiens, read-out: EC50 in causing death of Ramos cells. From the text:
The compounds described herein can be tested for activity against F1F0-ATPase by measuring ATP synthesis and ATP hydrolysis. In addition, the compounds described herein can be evaluated for cytotoxicity against Ramos cells. Inhibition of ATP synthesis and hydrolysis by the F1F0-ATPase and cytotoxicity in Ramos cells can be measured as described in K. M. Johnson et al. in Chemistry & Biology (2005) Vol. 12, pp. 485-496.

Four molecules from US8759340B2, “Benzodiazepinone compounds useful in the treatment of skin conditions” (The Regents of the University of Michigan, priority 2007, dated 2014) can be followed below.

One may read the melting point as the temperature, or range, at which the solid turns liquid.

“Also recorded” adds a separate entry of the source.

In data set [1] (exposed to RA alone, 70-90 μm in the absence of RA), `CC1=C(/C=C/C(C)=C/C=C/C(C)=C/C(=O)O)C(C)(C)CCC1` [RA, all-trans retinoic acid, reference compound] gave an average epidermal thickness of 275 μm.

Consider `Cc1cccc(C)c1CC1N=C(c2ccc(O)cc2)c2cc(Cl)ccc2N(C)C1=O` (stereo not drawn) [Compound 1, (Z)-7-chloro-3-(2,6-dimethylbenzyl)-5-(4-hydroxyphenyl)-1-methyl-1H-benzo[e][1,4]diazepin-2(3H)-one], for which the Toxicity result is listed as “no detectable toxicity; also recorded: None detected” in data set [2] (0.5 μM compound H, listed as Compound H); “no detectable toxicity; also recorded: None detected” in data set [2] (1.0 μM compound H, listed as Compound H); 2.0 + 0.5 in data set [2] (2.0 μM compound H, listed as Compound H); “Slight toxicity” in data set [2] (2.0 μM compound H, listed as compound H). In addition, the “Percent Reduction in Retinoid-Induced Hyperplasia (%)” value in data set [1] (0.5 μM compound H) is reported as 40 + 10%; in data set [1] (1.0 μM compound H) it was 48 + 15%; in data set [1] (2.0 μM compound H), over 95%. Further, the inhibition at 1 µM was under 20% in data set [3] and at least 20% in data set [4]. For the same molecule, the inhibition at 0.05 µM in data set [3] (Fibroblast) and in data set [4] was under 20% each time. The inhibition at 0.1 µM in data set [3] (Fibroblast) and in data set [4] was under 20% in each case. Besides, the inhibition at 0.5 µM in data set [3] (Fibroblast) and in data set [4] was under 20% throughout. The inhibition at 5 µM in data set [3] (Fibroblast) and in data set [4] was at least 90% throughout. Moreover, the inhibition at 10 µM in data set [3] (Fibroblast) and in data set [4] was at least 90% in each case. Further, the EC50 in data set [3] (Fibroblast, based on the data from the cell proliferation assays, read-out: EC50 against proliferation of human foreskin fibroblasts) stood at 1400 ± 300 nM; in data set [4] (based on the data from the cell proliferation assays, read-out: EC50 against proliferation of human keratinocyte cells), 700 ± 100 nM.

For the molecule `Cc1ccccc1CC1N=C(c2ccc(F)cc2)c2cc(Cl)ccc2NC1=O` (stereo not drawn) [7-Chloro-5-(4-fluorophenyl)-3-(2-methylbenzyl)-1H-benzo[e][1,4]diazepin-2(3H)-one], the EC50 in data set [5] was determined as 7900 nM.

In turn, `CCc1ccc(CC2N=C(c3ccc(F)cc3)c3cc(Cl)ccc3NC2=O)cc1CC` (stereo not drawn) [Compound 11, (Z)-7-Chloro-3-(3,4-diethylbenzyl)-5-(4-fluorophenyl)-1H-benzo[e][1,4]diazepin-2(3H)-one] returned a melting point of 88 to 90 °C. In addition, the inhibition at 1 µM in data set [3] was under 20%. Moreover, in data set [3] (Fibroblast), the inhibition at 0.05 µM is under 20%, the inhibition at 0.1 µM is under 20%, the inhibition at 0.5 µM is under 20% and the inhibition at 5 µM is under 20%. Further, the inhibition at 10 µM in data set [3] (Fibroblast) was at least 90%. In data set [4], the inhibition at 0.05 µM was under 20%, the inhibition at 0.1 µM is under 20%, the inhibition at 0.5 µM was under 20% and the inhibition at 1 µM is under 20%. Besides, in data set [4], the inhibition at 5 µM is at least 90% and the inhibition at 10 µM is at least 90%.
